# Where two headings read alike, the source gives them in different places.
# Assays:
# H292 xenograft = assay: H292 cell line-derived xenograft efficacy; format: in vivo, BALB/c nude mice; settings: for tumor growth inhibition (TGI): by day 28
# Description: BALB/c nude mice were purchased from the Shanghai SIPPR/BK Laboratory Animal Co. Ltd. (Shanghai, China). For in vivo efficacy studies, HCT116 cells or H292 cells were resuspended in PBS and Matrigel (1:1) and implanted subcutaneously. When tumors reached an average size of 117 mm^3 (HCT116) or 140 mm^3 (H292), mice were randomized into four groups (n = 8 per group) and treated with Q901 (3 or 10 mg/kg, intraperitoneally once daily), T-DXd (10 mg/kg, single intravenous administration on day 0), SG (3 mg/kg, single intravenous administration on days 1 and 8), or a combination thereof. Tumor volumes were measured twice weekly after randomization in two dimensions, using a caliper. The TGI was calculated for each group using the formula: TGI (%) = [1 − (Ti − T0)/(Vi − V0)] × 100, where Ti is the average tumor volume of the treatment group on the given day, T0 is the average tumor volume of the treatment group on the day when the treatment was started, Vi is the average tumor volume of the vehicle control group on the same day with Ti, and V0 is the average tumor volume of the vehicle group on the day of treatment start. Statistical significance was calculated using a two-way analysis of variance (ANOVA) followed by Tukey’s multiple comparison test in GraphPad Prism 10.4.1.
# H292 cells = assay: H292 cell viability, single agent and combination (SynergyFinder, ATP Lite); format: cell-based; settings: 72 hours
# Description: (§1) SynergyFinder was performed by Oncolines (Oss, Netherlands). […] The absolute IC5_0 values were determined from the dose-response curves generated in XL-fit 5 using the four-parameter logistic equation: fit = A + ((B − A)/{1 + [(C/x)^D]}), where A and B represent the bottom and top plateaus of the curve, C is the IC5_0 value, x is the compound concentration, and D is the Hill slope.
# HCT116 cells = assay: HCT116 cell viability, single agent and combination (SynergyFinder, ATP Lite); format: cell-based; settings: Homo sapiens, HCT-116; 72 hours, alone
# Description: as §1
# [1] = target: T1, recombinant CDK7/cyclin H/MAT1 (CAK) trimeric complex (Homo sapiens, UniProt P50613); assay: Covalent binding site evaluation by mass spectrometry; settings: incubated 1 hour with CAK complex, Arg-C or Arg-C/trypsin digestion
# T1 construct: purchased Thermo Fisher Scientific PV3868
# T1 sequence (P50613 whole entry): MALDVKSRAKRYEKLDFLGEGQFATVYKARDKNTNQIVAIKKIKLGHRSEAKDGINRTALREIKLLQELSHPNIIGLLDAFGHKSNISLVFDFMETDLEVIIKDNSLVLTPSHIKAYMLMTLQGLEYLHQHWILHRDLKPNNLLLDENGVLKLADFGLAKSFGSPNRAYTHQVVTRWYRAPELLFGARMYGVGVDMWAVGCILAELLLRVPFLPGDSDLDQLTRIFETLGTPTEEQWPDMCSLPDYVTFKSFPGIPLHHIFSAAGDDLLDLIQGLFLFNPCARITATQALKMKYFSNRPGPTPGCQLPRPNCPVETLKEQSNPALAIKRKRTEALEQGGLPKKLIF
# T1 sequence (P51946 whole entry partner): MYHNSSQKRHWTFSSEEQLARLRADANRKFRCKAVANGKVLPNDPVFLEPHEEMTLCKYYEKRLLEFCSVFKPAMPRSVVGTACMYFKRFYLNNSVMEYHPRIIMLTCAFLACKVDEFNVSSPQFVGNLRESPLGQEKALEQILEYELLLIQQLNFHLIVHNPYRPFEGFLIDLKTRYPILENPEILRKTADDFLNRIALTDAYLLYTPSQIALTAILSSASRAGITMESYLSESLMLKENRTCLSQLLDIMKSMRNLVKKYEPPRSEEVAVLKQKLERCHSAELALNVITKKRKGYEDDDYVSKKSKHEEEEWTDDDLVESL
# T1 sequence (P51948 whole entry partner): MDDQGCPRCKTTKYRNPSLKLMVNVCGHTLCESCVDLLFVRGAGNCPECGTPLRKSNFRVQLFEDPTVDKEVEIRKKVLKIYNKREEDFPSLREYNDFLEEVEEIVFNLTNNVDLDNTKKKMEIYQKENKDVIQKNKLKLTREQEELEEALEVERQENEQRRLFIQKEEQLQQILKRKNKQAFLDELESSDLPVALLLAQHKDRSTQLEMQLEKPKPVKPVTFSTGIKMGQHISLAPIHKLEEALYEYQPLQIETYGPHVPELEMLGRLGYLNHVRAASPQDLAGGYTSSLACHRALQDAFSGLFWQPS
# Description: The recombinant CAK complex (CDK7/cyclin H/MAT1; Thermo Fisher Scientific, PV3868) was incubated with Q901 or DMSO for 1 hour at room temperature (RT), and the reaction complexes were resolved by SDS–polyacrylamide gel electrophoresis (PAGE). The bands corresponding to CDK7 were excised for in-gel digestion. Denaturation, reduction, and alkylation were performed using 8 M urea, TCEP, and iodoacetamide at RT, followed by Arg-C digestion (1:100 Arg-C:protein ratio, at 37°C for 18 hours) and Arg-C/trypsin digestion (1:100 Arg-C:protein ratio and 1:50 trypsin:protein ratio, at 37°C for 18 hours). The extracted peptides were loaded and eluted using a high-performance liquid chromatography (HPLC) system and then separated through a linear gradient (3 to 60% mobile phase B in 120 min) at a flow rate of 0.3 μl/min using EASY-Spray HPLC Columns (75 μm/500 mm) (Thermo Fisher Scientific, ES903) at 40°C and introduced into an Orbitrap Exploris 240 LC-MS/MS System (Thermo Fisher Scientific, BRE725535) in positive ion mode and run in data-independent acquisition (DIA) mode. Data acquisition was performed over a mass/charge ratio (m/z) range of 390 to 1010, and peak integrations for fragment ions of the most intense charge state of the doubly carbamidomethylated Cys^312-containing peptide were analyzed using the Skyline software 24.1 (Seattle, WA, USA). […]
# CDK7 = target: T2, CDK7 (Homo sapiens, UniProt P50613); assay: Radiometric protein kinase assay (PanQinase; 410-kinase panel and 28 CDK titration); format: biochemical; settings: ATP at apparent ATP-Km
# T2 construct: purchased Reaction Biology (Freiburg, Germany), assay service
# T2 sequence (P50613 whole entry): as the sequence (P50613 whole entry) above
# T2 sequence (P51946 whole entry partner): as the sequence (P51946 whole entry partner) above
# T2 sequence (P51948 whole entry partner): as the sequence (P51948 whole entry partner) above
# Description: (§2) A radiometric protein kinase assay service was provided by Reaction Biology (Freiburg, Germany) to measure the kinase activity of 410 protein kinases and 28 CDKs.
# In the kinase inhibition assay, the residual activity for each compound was calculated using the following formula: Residual activity (%) = 100 × [(signal of compound − low control)/(high control − low control)]. The selectivity score of the compound at the tested concentrations was calculated for residual activity < 50%, that is, inhibition of >50%. The selectivity score for a particular compound at a particular concentration was calculated using the following formula: Selectivity score = (count of data points < 50%)/(total number of data points).
# (§3) In the 28 CDK titration assay, the residual activity and IC50 values of the compound were calculated using the Quattro Workflow V3.1.1 (Quattro Research GmbH, Munich, Germany). The ATP concentration used in each kinase reaction was set to the apparent ATP-Km value. Dose-response curve fitting was performed using a four-parameter logistic regression model in GraphPad Prism 10.4.1 (GraphPad Software, Boston, MA, USA).
# MCF-7 cells = assay: MCF-7 cell viability (ATP Lite system); format: cell-based; settings: Homo sapiens, MCF7, read-out: IC50 MCF-7 cell growth
# Description: Fig. 2. Q901 alters RNAPII phosphorylation and transcriptional activity. (A) MCF-7 cells were treated with Q901 at the indicated concentrations for 72, 96, or 120 hours. Cell viability was measured using the ATP Lite system. Inhibition (%) was plotted against the log-transformed Q901 concentration (μM) (n = 3 to 4). Data represent means ± SD. (B and C) RNAPII ChIP-seq was performed following treatment with 100 nM Q901 for the indicated duration. (B) Volcano plot of pan RNAPII ChIP-seq signals after Q901 treatment [n = 2; blue dot indicates P value ≤ 0.05 and log2 fold change (log2FC) ≤ −0.58; red dot indicates P value ≤ 0.05 and log2FC ≥ 0.58]. […] CDK7 ChIP-seq was performed with 100 nM Q901 for the indicated durations.
# Cells were seeded into 96-well plates and treated with compounds at the indicated concentrations and time points. After incubation, cell viability was measured using either CellTiter-Glo luminescent cell viability assay (Promega, Madison, WI, USA, G7572) according to the manufacturer’s instructions. Plates were equilibrated to RT for 30 min before adding 50 μl of CellTiter-Glo reagent to each well. Luminescence was measured using the EnVision Multi Label Reader (PerkinElmer, Waltham, MA, USA). Dose-response curves were fitted using a nonlinear regression model with a sigmoidal dose-response function in GraphPad Prism 10.4.1. The absolute IC5_0 values were calculated using the dose-response curves generated in XL-fit 5 (IDBS Software, Woking, UK) and fitted with the four-parameter logistic equation: fit = A + ((B − A)/{1 + [(C/x)^D]}), where A and B represent the bottom and top plateaus of the curve, respectively, C is the IC5_0 value, x is the compound concentration, and D is the Hill slope.
# other CDKs = assay: Radiometric 28 CDK titration assay, selectivity over other CDKs; format: biochemical; settings: ranging from 242-fold to over 1000-fold
# Description: as §2, §3
# CDK9 = target: T3, CDK9 (Homo sapiens, UniProt P50750); assay: Radiometric 28 CDK titration assay; format: biochemical
# T3 construct: purchased Reaction Biology (Freiburg, Germany), assay service
# Description: as §2, §3
# CDK8 = target: T4, CDK8 (Homo sapiens, UniProt P49336); assay: Radiometric 28 CDK titration assay; format: biochemical
# T4 construct: purchased Reaction Biology (Freiburg, Germany), assay service
# T4 sequence (P49336 whole entry): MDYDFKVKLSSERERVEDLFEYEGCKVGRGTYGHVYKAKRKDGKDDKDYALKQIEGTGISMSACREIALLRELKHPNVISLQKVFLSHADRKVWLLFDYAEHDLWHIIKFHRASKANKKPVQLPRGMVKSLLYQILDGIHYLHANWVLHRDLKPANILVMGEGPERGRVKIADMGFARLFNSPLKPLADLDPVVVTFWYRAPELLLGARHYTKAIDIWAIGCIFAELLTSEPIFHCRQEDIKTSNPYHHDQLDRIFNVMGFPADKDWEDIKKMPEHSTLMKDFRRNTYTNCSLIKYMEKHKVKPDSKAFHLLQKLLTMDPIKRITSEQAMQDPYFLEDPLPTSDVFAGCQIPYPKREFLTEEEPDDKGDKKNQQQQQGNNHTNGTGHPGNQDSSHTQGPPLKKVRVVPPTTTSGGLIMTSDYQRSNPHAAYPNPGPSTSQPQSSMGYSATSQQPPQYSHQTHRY
# T4 sequence (P24863 whole entry partner): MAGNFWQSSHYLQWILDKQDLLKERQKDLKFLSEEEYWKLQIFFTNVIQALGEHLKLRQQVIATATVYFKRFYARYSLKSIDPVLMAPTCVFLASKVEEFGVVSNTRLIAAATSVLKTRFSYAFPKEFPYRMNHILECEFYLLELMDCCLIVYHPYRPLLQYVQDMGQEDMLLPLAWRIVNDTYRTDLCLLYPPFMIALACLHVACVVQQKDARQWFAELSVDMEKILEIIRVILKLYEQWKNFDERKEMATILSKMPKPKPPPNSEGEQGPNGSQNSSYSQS
# Description: as §2, §3
# CDK13 = target: T5, CDK13 (Homo sapiens, UniProt Q14004); assay: Radiometric 28 CDK titration assay; format: biochemical
# T5 construct: purchased Reaction Biology (Freiburg, Germany), assay service
# T5 sequence (Q14004 whole entry): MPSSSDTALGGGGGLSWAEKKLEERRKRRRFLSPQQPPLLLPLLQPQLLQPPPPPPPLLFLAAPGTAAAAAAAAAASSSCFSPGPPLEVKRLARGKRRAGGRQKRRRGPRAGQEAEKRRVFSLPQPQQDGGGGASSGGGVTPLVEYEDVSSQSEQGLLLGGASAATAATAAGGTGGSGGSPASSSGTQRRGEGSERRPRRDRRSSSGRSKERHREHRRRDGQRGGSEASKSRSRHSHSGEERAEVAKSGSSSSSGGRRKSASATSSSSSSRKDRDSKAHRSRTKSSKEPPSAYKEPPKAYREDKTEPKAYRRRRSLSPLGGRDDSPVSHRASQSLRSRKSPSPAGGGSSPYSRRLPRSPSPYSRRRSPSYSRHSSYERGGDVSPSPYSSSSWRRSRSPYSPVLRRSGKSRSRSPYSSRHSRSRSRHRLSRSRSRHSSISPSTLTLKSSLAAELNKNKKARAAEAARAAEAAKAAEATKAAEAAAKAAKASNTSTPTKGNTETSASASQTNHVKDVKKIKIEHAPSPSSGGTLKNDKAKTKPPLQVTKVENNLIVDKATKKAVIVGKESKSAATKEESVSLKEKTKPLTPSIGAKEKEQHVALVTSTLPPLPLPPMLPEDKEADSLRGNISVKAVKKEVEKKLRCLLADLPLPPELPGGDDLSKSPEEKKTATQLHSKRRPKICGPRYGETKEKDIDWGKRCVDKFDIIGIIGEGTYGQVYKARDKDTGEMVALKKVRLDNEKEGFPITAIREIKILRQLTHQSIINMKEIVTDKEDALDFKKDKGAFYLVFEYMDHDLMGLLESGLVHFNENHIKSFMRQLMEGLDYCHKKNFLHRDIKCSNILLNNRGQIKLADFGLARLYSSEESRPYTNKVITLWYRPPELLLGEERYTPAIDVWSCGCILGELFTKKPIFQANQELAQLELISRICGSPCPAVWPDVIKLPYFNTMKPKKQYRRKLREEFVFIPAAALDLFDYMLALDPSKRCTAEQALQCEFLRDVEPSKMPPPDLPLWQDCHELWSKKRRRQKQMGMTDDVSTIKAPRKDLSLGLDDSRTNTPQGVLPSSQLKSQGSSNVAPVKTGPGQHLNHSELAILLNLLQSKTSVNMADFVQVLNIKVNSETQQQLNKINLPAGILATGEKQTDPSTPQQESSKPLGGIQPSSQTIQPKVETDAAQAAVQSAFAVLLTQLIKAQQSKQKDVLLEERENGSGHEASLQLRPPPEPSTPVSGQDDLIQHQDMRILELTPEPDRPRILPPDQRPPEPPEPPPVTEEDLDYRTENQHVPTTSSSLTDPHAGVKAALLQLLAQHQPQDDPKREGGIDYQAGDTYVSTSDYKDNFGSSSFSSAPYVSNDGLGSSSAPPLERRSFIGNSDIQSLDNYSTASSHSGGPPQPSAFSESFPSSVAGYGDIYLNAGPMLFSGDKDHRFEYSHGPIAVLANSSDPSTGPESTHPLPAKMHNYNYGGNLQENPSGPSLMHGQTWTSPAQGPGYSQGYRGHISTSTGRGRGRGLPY
# T5 sequence (O75909 whole entry partner): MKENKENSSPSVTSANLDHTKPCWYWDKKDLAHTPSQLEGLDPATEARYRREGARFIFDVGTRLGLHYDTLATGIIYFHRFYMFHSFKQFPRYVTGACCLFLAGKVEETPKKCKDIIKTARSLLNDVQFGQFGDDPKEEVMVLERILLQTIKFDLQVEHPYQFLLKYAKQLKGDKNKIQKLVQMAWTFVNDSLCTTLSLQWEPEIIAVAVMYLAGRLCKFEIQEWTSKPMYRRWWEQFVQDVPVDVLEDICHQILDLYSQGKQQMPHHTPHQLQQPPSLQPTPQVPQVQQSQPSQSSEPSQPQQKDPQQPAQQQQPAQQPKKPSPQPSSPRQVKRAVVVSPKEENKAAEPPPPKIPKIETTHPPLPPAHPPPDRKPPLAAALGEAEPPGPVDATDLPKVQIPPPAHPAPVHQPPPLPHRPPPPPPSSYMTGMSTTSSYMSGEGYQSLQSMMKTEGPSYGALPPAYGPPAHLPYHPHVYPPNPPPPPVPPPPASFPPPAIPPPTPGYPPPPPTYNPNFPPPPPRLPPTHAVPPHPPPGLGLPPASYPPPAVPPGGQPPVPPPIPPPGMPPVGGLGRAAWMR
# Description: as §2, §3
# CDK12 = target: T6, CDK12 (Homo sapiens, UniProt Q9NYV4); assay: Radiometric 28 CDK titration assay; format: biochemical
# T6 construct: purchased Reaction Biology (Freiburg, Germany), assay service
# Description: as §2, §3
# HCT116 xenograft = assay: HCT116 cell line-derived xenograft efficacy; format: in vivo, BALB/c nude mice; settings: by day 28; T-DXd 10 mg/kg single iv, Q901 10 mg/kg ip once daily
# Description: BALB/c nude mice were purchased from the Shanghai SIPPR/BK Laboratory Animal Co. Ltd. (Shanghai, China). For in vivo efficacy studies, HCT116 cells or H292 cells were resuspended in PBS and Matrigel (1:1) and implanted subcutaneously. […] Tumor volumes were measured twice weekly after randomization in two dimensions, using a caliper. The TGI was calculated for each group using the formula: TGI (%) = [1 − (Ti − T0)/(Vi − V0)] × 100, where Ti is the average tumor volume of the treatment group on the given day, T0 is the average tumor volume of the treatment group on the day when the treatment was started, Vi is the average tumor volume of the vehicle control group on the same day with Ti, and V0 is the average tumor volume of the vehicle group on the day of treatment start. Statistical significance was calculated using a two-way analysis of variance (ANOVA) followed by Tukey’s multiple comparison test in GraphPad Prism 10.4.1.
# [2] = target: T7, recombinant human CDK7/cyclin H/MNAT1 (Homo sapiens, UniProt P50613); assay: LANCE Ultra TR-FRET CDK7 kinase assay (cell-free enzymatic assay); format: biochemical; settings: eight-point dilution, top 3000 nM, read-out: IC50 against CDK7
# T7 construct: His-tag; purchased Invitrogen PR6749B
# T7 sequence (P50613 whole entry): as the sequence (P50613 whole entry) above
# T7 sequence (P51946 whole entry partner): as the sequence (P51946 whole entry partner) above
# T7 sequence (P51948 whole entry partner): as the sequence (P51948 whole entry partner) above
# Description: CDK7 kinase activity was measured using a LANCE Ultra TR-FRET kinase assay (Revvity, formerly PerkinElmer, Waltham, MA, USA) according to the manufacturer’s protocol. Briefly, recombinant human CDK7/cyclin H/MNAT1 His-tag protein (Invitrogen, PR6749B) was incubated with compounds (Q901, Q901R, and QS0551508) in kinase buffer in a 384-well format. The assay used a ULight-labeled peptide substrate and a europium-labeled anti-phospho antibody for time-resolved fluorescence resonance energy transfer (TR-FRET) detection.
# TR-FRET signals were measured using an EnVision multimode plate reader (Revvity, EnVision 2105 Alpha) with LANCE/DELFIA detection settings.
# Compounds were tested using an eight-point serial dilution (top concentration: 3000 nM, 1:4 dilution). Signals were normalized to DMSO-treated controls to calculate residual kinase activity (%), and dose-response curves were generated using GraphPad Prism 10.4.1.
# [3] = first regimen: SG 3 mg/kg, Q901 10 mg/kg
# [4] = second regimen: SG 10 mg/kg, Q901 3 mg/kg
molecule,measurement,setting,value
sacituzumab govitecan [SG],time at which tumors showed regrowth,"H292 xenograft; H292 xenograft, SG alone",> 14 days
same,tumor growth inhibition (TGI),H292 xenograft; [3],47%
same,tumor growth inhibition (TGI),H292 xenograft; [4],72%
same,H292 IC50,H292 cells; monotherapy,0.5 µg/mL
C=C(F)C(=O)Nc1ccc2c(-c3ccccc3CNc3nc(NC[C@H]4CCNC[C@@H]4O)nc4c(C(C)C)cnn34)nccc2c1 [Q901],IC50,HCT116 cells,0.0084 µM
same,tumor growth inhibition (TGI),H292 xenograft; [3],80%
same,tumor growth inhibition (TGI),H292 xenograft; [4],61%
same,reduction of intensity of Cys312-containing peptides (residues 310 to 329 and 310 to 318),[1],~99%
same,inhibition at 1 µM,"CDK7; 1 μM, 1 hour",99%
same,remaining activity at 1 µM,"CDK7; 1 μM, 1 hour, read-out: residual activity value CDK7",1%
same,IC50,CDK7; in vitro,0.01 µM
same,IC50,MCF-7 cells; 72 hours,0.095 µM
same,IC50,MCF-7 cells; 96 hours,0.016 µM
same,IC50,MCF-7 cells; 120 hours,0.005 µM
same,IC50 values for other CDKs higher than that for CDK7,other CDKs,≥ 242 fold
same,fold difference in inhibition of CDK9 compared to CDK7,CDK9,715 fold
same,fold difference in inhibition of CDK8 compared to CDK7,CDK8,> 1000 fold
same,IC50,CDK8; ATP at apparent ATP-Km,> 10 µM
same,fold difference in inhibition of CDK13 compared to CDK7,CDK13,641 fold
same,fold difference in inhibition of CDK12 compared to CDK7,CDK12,207 fold
same,IC50,"H292 cells; Homo sapiens, NCI-H292, Single treatment / monotherapy",0.012 µM
same,tumor growth inhibition (TGI),HCT116 xenograft,81%
same,IC50,[2],0.0104 µM
